# Test results: patent US8530512B2, “Broad spectrum gram-positive antimicrobials and anthelmintics with efficacy against drug-resistant strains and Mycobacterium species” (priority 2004, dated 2013)
# Read-outs that look alike come from different tables or passages of the source.
# How the values were obtained:
# M. smegmatis = experiment: MIC assay; assay type: cell-based; details: for MIC: Mycolicibacterium smegmatis, read-out: MIC M. smegmatis
# M. kansasii = experiment: MIC assay; assay type: cell-based; details: Table 6; for MIC: Mycobacterium kansasii, read-out: MIC M. kansasii
# [1] = test system: Staphylococcus aureus ATCC 29213; experiment: microbe, parasite or virus in culture; assay type: cell-based; details: for MIC: Staphylococcus aureus, ATCC29213
# Mycobacterium avium = experiment: MIC assay; assay type: cell-based; details: Table 6; for MIC: Mycobacterium avium, read-out: MIC M. avium
# [2] = test system: Staphylococcus aureus MRSA MC-1; experiment: microbe, parasite or virus in culture; assay type: cell-based; details: for MIC: Staphylococcus aureus, MRSA; for MIC S. aureus MC-1: Table 6
# Bacillus cereus = experiment: microbe, parasite or virus in culture; assay type: cell-based; details: Bacillus cereus; per-compound listing, Example 6; read-out: MIC B. cereus
# Mycobacterium fortuitum = experiment: MIC assay; assay type: cell-based; details: Table 6; for MIC: Mycolicibacterium fortuitum, read-out: MIC M. fortuitum
# C. elegans = experiment: motility assay; assay type: in vivo; set-up: key to Movement score, 1/1600 / Movement score, 1/800 / Movement score, 1/400 / Movement score, 1/200 / Movement score, 1/100: normal (−); slow (+); very slow (++); not motile/paralyzed (+++); details: Ive 1 ng/μL in all wells; for Movement score, 1/100: dilution 1/100 of stock (10.24 μg/μL; SK-03-92 1.024 μg/μL); for Movement score, 1/200: dilution 1/200 of stock (10.24 μg/μL; SK-03-92 1.024 μg/μL); for Movement score, 1/400: dilution 1/400 of stock (10.24 μg/μL; SK-03-92 1.024 μg/μL); for Movement score, 1/800: dilution 1/800 of stock (10.24 μg/μL; SK-03-92 1.024 μg/μL); for Movement score, 1/1600: dilution 1/1600 of stock (10.24 μg/μL; SK-03-92 1.024 μg/μL), overnight 20° C.
# Mycobacterium chelonae = experiment: MIC assay; assay type: cell-based; details: Table 6; for MIC: read-out: MIC M. chelonae
# [3] = test system: Mycobacterium intracellulare; experiment: MIC assay; assay type: cell-based; details: Table 6; for MIC: Mycobacterium intracellulare, read-out: MIC M. intracellulare
# [4] = Table 6, read-out: MIC S. aureus ATCC 29213
SMILES,MIC M. smegmatis (M. smegmatis; Table 6),MIC (M. kansasii),"MIC [1, 4]",MIC (Mycobacterium avium),MIC ([2]; read-out: MIC S. aureus MC-1),MIC (Mycobacterium fortuitum),MIC (Mycobacterium chelonae),MIC [3],MIC M. kansasii (M. kansasii),MIC S. aureus ATCC 29213 ([1]; Table 6),MIC M. avium (Mycobacterium avium),MIC S. aureus MC-1 [2],MIC M. fortuitum (Mycobacterium fortuitum),MIC M. chelonae (Mycobacterium chelonae),MIC M. intracellulare [3],also measured
COc1cc(O)cc(/C=C/Oc2cccc3ccccc23)c1 [SK-04-22],128 µg/mL,64 µg/mL,16 µg/mL,64 µg/mL,16 µg/mL,128 µg/mL,256 µg/mL,128 µg/mL,,,,,,,,"MIC (M. smegmatis; per-compound listing, Example 6): 128 µg/mL; MIC ([1]; per-compound listing, Example 6, read-out: MIC S. aureus): 32 µg/mL; MIC ([2]; read-out: MIC MRSA): 16 µg/mL; MIC (Bacillus cereus): 8 µg/mL; Movement score, 1/100 (C. elegans): ++; Movement score, 1/200 (C. elegans): +; Movement score, 1/400 (C. elegans): +; Movement score, 1/800 (C. elegans): −; Movement score, 1/1600 (C. elegans): −"
CCOC(=O)/C=C\Sc1ccccc1C(=O)OC [SK-04-56],,64 µg/mL,> 512 µg/mL,64 µg/mL,> 512 µg/mL,64 µg/mL,64 µg/mL,256 µg/mL,,,,,,,,MIC (M. smegmatis; Table 6): 64 µg/mL
CCOC(=O)/C=C\Sc1ccc(C(C)(C)C)cc1 [SK-04-57],,16 µg/mL,> 512 µg/mL,64 µg/mL,> 512 µg/mL,4 µg/mL,8 µg/mL,128 µg/mL,,,,,,,,"MIC (M. smegmatis; Table 6): 16 µg/mL; Movement score, 1/100 (C. elegans): +; Movement score, 1/200 (C. elegans): −; Movement score, 1/400 (C. elegans): −; Movement score, 1/800 (C. elegans): −; Movement score, 1/1600 (C. elegans): −"
CCOC(=O)/C=C\Sc1ncccn1 [SK-04-58F],64 µg/mL,,,,,,,,64 µg/mL,>512 µg/mL,64 µg/mL,>512 µg/mL,64 µg/mL,32 µg/mL,128 µg/mL,
CCOC(=O)/C=C\Sc1nc2ccccc2s1 [SK-04-59F],16 to 32 µg/mL,,,,,,,,8 µg/mL,>512 µg/mL,64 µg/mL,>512 µg/mL,16 µg/mL,8 µg/mL,16 µg/mL,
N#Cc1cccc(/C=C/SC2=NCCS2)c1 [SK-04-72],64 µg/mL,,,,,,,,,>512 µg/mL,64 µg/mL,>512 µg/mL,64 µg/mL,64 µg/mL,64 µg/mL,
N#Cc1cccc(/C=C/Sc2ncccn2)c1 [SK-04-73],64 µg/mL,,,,,,,,128 µg/mL,512 µg/mL,512 µg/mL,>512 µg/mL,256 µg/mL,256 µg/mL,512 µg/mL,
